Publication PMC4730229, “Benzobisthiazoles Represent a Novel Scaffold for Kinase Inhibitors of CLK Family Members” (Biochemistry, 2015)

Tests used:
Experiment in all cases: Kinase profiling (radioactive filter binding)
Format in all cases: biochemical
[1] = biological target: T1, Dyrk1A (Homo sapiens, UniProt Q13627); details: for DYRK1A activity in kinase profiling: 1 uM compound; for inhibition at 1 µM: 1 μM compound, read-out: inhibitory activity toward DYRK1A in kinase panel
T1 construct: purchased Invitrogen PV3785

[2] = biological target: MKK6 (Homo sapiens, UniProt P52564); details: 1 uM compound
Method: (§1) 3A5 and 5E4 were sent to the International Centre for Kinase Profiling at the MRC Protein Phosphorylation and Ubiquitylation Unit for profiling (as described in ref ([17])). Compounds were profiled against 140 kinases using a radioactive ([^33P]ATP) filter binding assay at a concentration of 1 μM. Results were obtained as inhibition of kinase activity and are listed in Supplementary Table 2.

[3] = biological target: CDK9-Cyclin T1 (Homo sapiens, UniProt P50750); details: 1 uM compound
Method: as §1

[4] = biological target: TAK1 (Homo sapiens, UniProt O43318); details: 1 uM compound
Method: as §1

[5] = biological target: PINK (Tribolium castaneum, UniProt D6WMX4); details: 1 uM compound
Method: as §1

[6] = biological target: PRK2 (Homo sapiens, UniProt Q16513); details: 1 uM compound
Method: as §1

[7] = biological target: CDK2-Cyclin A (Homo sapiens, UniProt P24941); details: 1 uM compound
Method: as §1

[8] = biological target: CLK2 (Homo sapiens, UniProt P49760); details: for CLK2 activity in kinase profiling: 1 uM compound; for inhibition at 1 µM: 1 μM compound, read-out: inhibition of CLK2 in kinase panel
Method: as §1

[9] = biological target: PKD1 (Homo sapiens, UniProt Q15139); details: 1 uM compound
Method: as §1

[10] = biological target: ZAP70 (Homo sapiens, UniProt P43403); details: 1 uM compound
Method: as §1

[11] = biological target: MNK2 (Homo sapiens, UniProt Q9HBH9); details: 1 uM compound
Method: as §1

[12] = biological target: BTK (Homo sapiens, UniProt Q06187); details: 1 uM compound
Method: as §1

[13] = biological target: EPH-A2 (Homo sapiens, UniProt P29317); details: 1 uM compound
Method: as §1

[14] = biological target: MARK1 (Homo sapiens, UniProt Q9P0L2); details: 1 uM compound
Method: as §1

[15] = biological target: TrkA (Homo sapiens, UniProt P04629); details: 1 uM compound
Method: as §1

[16] = biological target: PKBb (Homo sapiens, UniProt P31751); details: 1 uM compound
Method: as §1

[17] = biological target: PKCγ (Homo sapiens, UniProt P05129); details: 1 uM compound
Method: as §1

[18] = biological target: IRAK4 (Homo sapiens, UniProt Q9NWZ3); details: 1 uM compound
Method: as §1

[19] = biological target: FGF-R1 (Homo sapiens, UniProt P11362); details: 1 uM compound
Method: as §1

[20] = biological target: MNK1 (Homo sapiens, UniProt Q9BUB5); details: 1 uM compound
Method: as §1

[21] = biological target: BRK (Homo sapiens, UniProt Q13882); details: 1 uM compound
Method: as §1

[22] = biological target: GSK3b (Homo sapiens, UniProt P49841); details: 1 uM compound
Method: as §1

[23] = biological target: ERK1 (Homo sapiens, UniProt P27361); details: 1 uM compound
Method: as §1

[24] = biological target: TGFBR1 (Homo sapiens, UniProt P36897); details: 1 uM compound
Method: as §1

[25] = biological target: SRPK1 (Homo sapiens, UniProt Q96SB4); details: 1 uM compound
Method: as §1

[26] = biological target: PKBa (Homo sapiens, UniProt P31749); details: 1 uM compound
Method: as §1

[27] = biological target: TSSK1 (Homo sapiens, UniProt Q9BXA7); details: 1 uM compound
Method: as §1

[28] = biological target: CAMKKb (Homo sapiens, UniProt Q96RR4); details: 1 uM compound
Method: as §1

[29] = biological target: PIM2 (Homo sapiens, UniProt Q9P1W9); details: 1 uM compound
Method: as §1

[30] = biological target: STK33 (Homo sapiens, UniProt Q9BYT3); details: 1 uM compound
Method: as §1

[31] = biological target: HER4 (Homo sapiens, UniProt Q15303); details: 1 uM compound
Method: as §1

[32] = biological target: PKCz (Homo sapiens, UniProt Q05513); details: 1 uM compound
Method: as §1

[33] = biological target: ERK8 (Homo sapiens, UniProt Q8TD08); details: 1 uM compound
Method: as §1

[34] = biological target: SIK2 (Homo sapiens, UniProt Q9H0K1); details: 1 uM compound
Method: as §1

[35] = biological target: RSK2 (Homo sapiens, UniProt P51812); details: 1 uM compound
Method: as §1

[36] = biological target: MAPKAP-K3 (Homo sapiens, UniProt Q16644); details: 1 uM compound
Method: as §1

[37] = biological target: CK1δ (Homo sapiens, UniProt P48730); details: 1 uM compound
Method: as §1

[38] = biological target: MKK2 (Homo sapiens, UniProt P36507); details: 1 uM compound
Method: as §1

[39] = biological target: IRR (Homo sapiens, UniProt P14616); details: 1 uM compound
Method: as §1

[40] = biological target: GCK (Homo sapiens, UniProt Q12851); details: 1 uM compound
Method: as §1

[41] = biological target: MAP4K5 (Homo sapiens, UniProt Q9Y4K4); details: 1 uM compound
Method: as §1

[42] = biological target: MEKK1 (Homo sapiens, UniProt Q13233); details: 1 uM compound
Method: as §1

Sequence of CLK2 (P49760 whole entry): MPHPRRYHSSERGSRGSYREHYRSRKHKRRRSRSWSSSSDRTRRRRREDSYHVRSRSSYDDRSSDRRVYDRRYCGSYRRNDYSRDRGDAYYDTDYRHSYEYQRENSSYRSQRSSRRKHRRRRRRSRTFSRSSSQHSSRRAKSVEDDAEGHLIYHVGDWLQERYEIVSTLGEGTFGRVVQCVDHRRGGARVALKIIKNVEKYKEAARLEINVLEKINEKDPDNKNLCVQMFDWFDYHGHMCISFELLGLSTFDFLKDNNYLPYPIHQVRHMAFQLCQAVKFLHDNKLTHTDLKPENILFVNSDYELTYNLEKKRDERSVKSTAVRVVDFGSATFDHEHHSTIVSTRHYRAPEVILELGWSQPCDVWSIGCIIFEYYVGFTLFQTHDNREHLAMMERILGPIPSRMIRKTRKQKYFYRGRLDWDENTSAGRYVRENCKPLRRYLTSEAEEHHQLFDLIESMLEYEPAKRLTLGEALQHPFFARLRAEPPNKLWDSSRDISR
Sequence of TrkA (P04629 33-796): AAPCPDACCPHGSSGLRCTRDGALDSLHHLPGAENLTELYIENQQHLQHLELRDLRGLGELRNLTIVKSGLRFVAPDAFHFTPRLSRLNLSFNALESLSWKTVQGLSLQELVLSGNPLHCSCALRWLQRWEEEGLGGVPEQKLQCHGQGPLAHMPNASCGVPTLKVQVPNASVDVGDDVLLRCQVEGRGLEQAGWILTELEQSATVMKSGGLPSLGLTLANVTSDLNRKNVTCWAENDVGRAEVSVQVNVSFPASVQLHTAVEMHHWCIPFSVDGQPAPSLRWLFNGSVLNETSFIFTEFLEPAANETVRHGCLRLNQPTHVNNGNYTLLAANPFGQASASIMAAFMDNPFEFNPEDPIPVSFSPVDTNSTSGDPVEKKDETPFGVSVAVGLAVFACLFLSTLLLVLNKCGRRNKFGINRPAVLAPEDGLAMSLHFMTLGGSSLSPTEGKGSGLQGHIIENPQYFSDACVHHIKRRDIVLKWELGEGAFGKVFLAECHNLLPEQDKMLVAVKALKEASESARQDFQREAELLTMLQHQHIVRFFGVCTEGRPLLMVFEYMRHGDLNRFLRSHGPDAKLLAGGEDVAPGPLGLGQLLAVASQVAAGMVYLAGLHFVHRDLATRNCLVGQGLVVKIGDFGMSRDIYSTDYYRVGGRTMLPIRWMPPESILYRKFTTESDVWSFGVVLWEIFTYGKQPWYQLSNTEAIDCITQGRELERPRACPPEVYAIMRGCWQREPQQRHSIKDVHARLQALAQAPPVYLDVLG
Sequence of MNK1 (Q9BUB5 whole entry): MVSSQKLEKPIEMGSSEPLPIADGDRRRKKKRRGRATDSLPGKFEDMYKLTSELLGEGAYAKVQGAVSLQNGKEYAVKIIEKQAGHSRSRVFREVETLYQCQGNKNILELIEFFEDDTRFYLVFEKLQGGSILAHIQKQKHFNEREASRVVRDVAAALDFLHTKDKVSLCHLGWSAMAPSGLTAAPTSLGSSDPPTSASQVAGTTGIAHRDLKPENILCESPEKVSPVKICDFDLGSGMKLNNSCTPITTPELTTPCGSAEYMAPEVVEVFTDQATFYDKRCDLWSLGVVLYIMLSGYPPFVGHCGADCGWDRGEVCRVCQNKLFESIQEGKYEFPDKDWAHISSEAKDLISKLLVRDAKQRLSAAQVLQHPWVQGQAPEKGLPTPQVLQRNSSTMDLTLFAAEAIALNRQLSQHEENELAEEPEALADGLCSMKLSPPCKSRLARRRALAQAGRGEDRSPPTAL
Sequence of HER4 (Q15303 26-1308): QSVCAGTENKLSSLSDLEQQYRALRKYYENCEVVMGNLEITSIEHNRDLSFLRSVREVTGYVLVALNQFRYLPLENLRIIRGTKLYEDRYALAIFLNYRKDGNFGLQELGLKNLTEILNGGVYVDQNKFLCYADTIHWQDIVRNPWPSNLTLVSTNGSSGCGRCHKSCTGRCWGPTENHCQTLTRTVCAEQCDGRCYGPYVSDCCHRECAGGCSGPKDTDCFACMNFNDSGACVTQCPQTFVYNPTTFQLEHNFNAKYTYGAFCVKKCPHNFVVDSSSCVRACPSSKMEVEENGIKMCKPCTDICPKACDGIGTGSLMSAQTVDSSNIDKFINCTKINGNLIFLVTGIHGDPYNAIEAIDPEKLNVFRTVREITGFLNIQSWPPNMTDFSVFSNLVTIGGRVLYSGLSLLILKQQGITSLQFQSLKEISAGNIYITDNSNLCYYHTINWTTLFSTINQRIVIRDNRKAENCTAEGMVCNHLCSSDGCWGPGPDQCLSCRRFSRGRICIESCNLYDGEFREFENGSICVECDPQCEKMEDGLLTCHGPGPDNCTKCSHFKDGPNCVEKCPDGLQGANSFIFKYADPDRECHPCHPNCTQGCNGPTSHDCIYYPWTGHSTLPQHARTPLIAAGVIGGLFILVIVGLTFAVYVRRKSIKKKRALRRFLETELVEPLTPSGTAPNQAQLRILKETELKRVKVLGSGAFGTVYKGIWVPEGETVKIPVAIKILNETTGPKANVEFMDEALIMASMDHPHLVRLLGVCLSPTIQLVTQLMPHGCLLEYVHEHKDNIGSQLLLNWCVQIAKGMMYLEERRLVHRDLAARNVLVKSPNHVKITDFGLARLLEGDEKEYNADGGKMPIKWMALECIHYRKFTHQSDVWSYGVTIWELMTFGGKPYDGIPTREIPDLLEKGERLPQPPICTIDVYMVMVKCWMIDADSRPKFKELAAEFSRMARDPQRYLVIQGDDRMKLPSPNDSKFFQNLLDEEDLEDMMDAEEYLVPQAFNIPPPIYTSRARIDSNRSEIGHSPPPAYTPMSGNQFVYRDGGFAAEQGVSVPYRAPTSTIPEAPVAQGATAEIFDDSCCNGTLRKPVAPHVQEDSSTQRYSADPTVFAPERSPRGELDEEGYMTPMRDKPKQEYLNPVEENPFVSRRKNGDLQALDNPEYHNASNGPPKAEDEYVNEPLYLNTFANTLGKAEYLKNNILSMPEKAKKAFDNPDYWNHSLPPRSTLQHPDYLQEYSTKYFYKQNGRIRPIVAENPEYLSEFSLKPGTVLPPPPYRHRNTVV
Sequence of ERK8 (Q8TD08 whole entry): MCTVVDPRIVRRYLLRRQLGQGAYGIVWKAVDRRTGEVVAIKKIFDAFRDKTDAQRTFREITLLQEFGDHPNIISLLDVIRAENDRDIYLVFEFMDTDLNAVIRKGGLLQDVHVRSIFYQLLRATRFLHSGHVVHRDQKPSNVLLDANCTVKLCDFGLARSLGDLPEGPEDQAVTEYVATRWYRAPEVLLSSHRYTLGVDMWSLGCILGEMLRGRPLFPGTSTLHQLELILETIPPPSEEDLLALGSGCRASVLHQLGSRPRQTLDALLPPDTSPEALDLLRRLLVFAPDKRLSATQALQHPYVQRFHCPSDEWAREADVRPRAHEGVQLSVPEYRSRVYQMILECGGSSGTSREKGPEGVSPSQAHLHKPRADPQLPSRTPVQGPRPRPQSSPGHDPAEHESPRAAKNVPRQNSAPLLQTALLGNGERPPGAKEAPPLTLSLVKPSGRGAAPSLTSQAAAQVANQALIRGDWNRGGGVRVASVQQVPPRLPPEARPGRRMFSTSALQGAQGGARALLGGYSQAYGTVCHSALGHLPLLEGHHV
Sequence of GCK (Q12851 whole entry): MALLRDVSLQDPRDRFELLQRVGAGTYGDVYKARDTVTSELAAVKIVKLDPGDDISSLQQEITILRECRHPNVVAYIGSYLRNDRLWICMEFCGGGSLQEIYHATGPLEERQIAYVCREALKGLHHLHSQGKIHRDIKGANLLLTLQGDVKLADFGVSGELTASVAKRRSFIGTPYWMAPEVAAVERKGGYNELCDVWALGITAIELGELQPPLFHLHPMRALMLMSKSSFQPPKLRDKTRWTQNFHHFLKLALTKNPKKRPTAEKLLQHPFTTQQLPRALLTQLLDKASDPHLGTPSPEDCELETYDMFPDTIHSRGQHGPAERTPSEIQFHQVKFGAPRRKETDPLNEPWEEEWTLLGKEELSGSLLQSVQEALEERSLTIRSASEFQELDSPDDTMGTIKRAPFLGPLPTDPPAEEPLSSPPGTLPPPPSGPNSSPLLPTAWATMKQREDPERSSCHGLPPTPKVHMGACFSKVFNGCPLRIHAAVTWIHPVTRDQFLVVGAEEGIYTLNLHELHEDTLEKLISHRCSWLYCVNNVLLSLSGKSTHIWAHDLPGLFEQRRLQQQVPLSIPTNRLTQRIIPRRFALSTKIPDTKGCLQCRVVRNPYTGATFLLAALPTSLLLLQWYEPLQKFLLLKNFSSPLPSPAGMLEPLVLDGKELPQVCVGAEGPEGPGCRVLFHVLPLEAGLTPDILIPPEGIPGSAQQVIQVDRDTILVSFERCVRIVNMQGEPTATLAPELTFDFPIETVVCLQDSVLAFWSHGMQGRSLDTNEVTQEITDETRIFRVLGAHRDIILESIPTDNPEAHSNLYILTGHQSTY
Sequence of ERK1 (P27361 whole entry): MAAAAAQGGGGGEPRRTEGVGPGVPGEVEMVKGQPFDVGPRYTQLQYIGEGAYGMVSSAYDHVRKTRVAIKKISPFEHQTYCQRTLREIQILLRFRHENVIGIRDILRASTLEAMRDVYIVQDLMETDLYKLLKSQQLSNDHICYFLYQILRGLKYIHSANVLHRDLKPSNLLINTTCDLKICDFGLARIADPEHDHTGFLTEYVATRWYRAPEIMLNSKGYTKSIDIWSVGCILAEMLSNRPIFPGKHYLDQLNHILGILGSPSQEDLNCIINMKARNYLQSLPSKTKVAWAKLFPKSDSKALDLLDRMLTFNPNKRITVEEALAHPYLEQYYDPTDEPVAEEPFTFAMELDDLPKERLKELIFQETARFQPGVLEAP

In the case of `CSc1nc2ccc3nc(NC(=O)c4ccco4)sc3c2s1` [5E4, N-[7-(methylsulfanyl)[1,3]thiazolo[4,5-g][1,3]benzothiazol-2-yl]-2-furamide], the “DYRK1A activity in kinase profiling” value [1] is reported as 3, the inhibition at 1 µM [1] is reported as 97% and the “MKK6 activity in kinase profiling” value [2] is reported as 101. For the same compound, the “CDK9-Cyclin T1 activity in kinase profiling” value [3] was 88, the “TAK1 activity in kinase profiling” value [4] was 67 and the “PINK activity in kinase profiling” value [5] was 118. For the same compound, the “PRK2 activity in kinase profiling” value [6] was 88, the “CDK2-Cyclin A activity in kinase profiling” value [7] was 101 and the “CLK2 activity in kinase profiling” value [8] was 3. For the same compound, the inhibition at 1 µM [8] was 97%, the “PKD1 activity in kinase profiling” value [9] was 98 and the “ZAP70 activity in kinase profiling” value [10] was 93. For the same compound, the “MNK2 activity in kinase profiling” value [11] was 88, the “BTK activity in kinase profiling” value [12] was 105 and the “EPH-A2 activity in kinase profiling” value [13] was 162. The “MARK1 activity in kinase profiling” value [14] was 107, the “TrkA activity in kinase profiling” value [15] was 90 and the activity at 1 µM [16] was 121%. The “PKCγ activity in kinase profiling” value [17] was 100, the “IRAK4 activity in kinase profiling” value [18] was 50 and the “FGF-R1 activity in kinase profiling” value [19] was 109. The “MNK1 activity in kinase profiling” value [20] was 99, the “BRK activity in kinase profiling” value [21] was 98 and the “GSK3b activity in kinase profiling” value [22] was 84. The “ERK1 activity in kinase profiling” value [23] was 104, the “TGFBR1 activity in kinase profiling” value [24] was 94 and the “SRPK1 activity in kinase profiling” value [25] was 81. The activity at 1 µM [26] was 103%, the “TSSK1 activity in kinase profiling” value [27] was 81 and the “CAMKKb activity in kinase profiling” value [28] was 91. The “PIM2 activity in kinase profiling” value [29] was 71, the “STK33 activity in kinase profiling” value [30] was 110 and the “HER4 activity in kinase profiling” value [31] was 102. For the same compound, the “PKCz activity in kinase profiling” value [32] was 103, the “ERK8 activity in kinase profiling” value [33] was 83 and the “SIK2 activity in kinase profiling” value [34] was 94. For the same compound, the “RSK2 activity in kinase profiling” value [35] was 100, the “MAPKAP-K3 activity in kinase profiling” value [36] was 86 and the “CK1δ activity in kinase profiling” value [37] was 94. For the same compound, the “MKK2 activity in kinase profiling” value [38] was 121, the “IRR activity in kinase profiling” value [39] was 92 and the “GCK activity in kinase profiling” value [40] was 24. The “MAP4K5 activity in kinase profiling” value [41] was 89 and the “MEKK1 activity in kinase profiling” value [42] was 108.

With `Cc1nc2ccc3sc(NC(=O)c4ccc5ncsc5c4)nc3c2s1` [3A5, N-(2-methyl[1,3]thiazolo[5,4-e][1,3]benzothiazol-7-yl)-1,3-benzothiazole-6-carboxamide] the “DYRK1A activity in kinase profiling” value [1] was 16, the inhibition at 1 µM [1] was 84% and the “MKK6 activity in kinase profiling” value [2] was 119. For the same compound, the “CDK9-Cyclin T1 activity in kinase profiling” value [3] was 87, the “TAK1 activity in kinase profiling” value [4] was 87 and the “PINK activity in kinase profiling” value [5] was 115. For the same compound, the “PRK2 activity in kinase profiling” value [6] was 95, the “CDK2-Cyclin A activity in kinase profiling” value [7] was 115 and the “CLK2 activity in kinase profiling” value [8] was 3.39. The inhibition at 1 µM [8] was 97%, the “PKD1 activity in kinase profiling” value [9] was 96 and the “ZAP70 activity in kinase profiling” value [10] was 109. The “MNK2 activity in kinase profiling” value [11] was 86, the “BTK activity in kinase profiling” value [12] was 106 and the “EPH-A2 activity in kinase profiling” value [13] was 134. The “MARK1 activity in kinase profiling” value [14] was 103, the “TrkA activity in kinase profiling” value [15] was 93 and the activity at 1 µM [16] was 125%. The “PKCγ activity in kinase profiling” value [17] was 102, the “IRAK4 activity in kinase profiling” value [18] was 46 and the “FGF-R1 activity in kinase profiling” value [19] was 149. For the same compound, the “MNK1 activity in kinase profiling” value [20] was 109, the “BRK activity in kinase profiling” value [21] was 97 and the “GSK3b activity in kinase profiling” value [22] was 102. For the same compound, the “ERK1 activity in kinase profiling” value [23] was 102, the “TGFBR1 activity in kinase profiling” value [24] was 93 and the “SRPK1 activity in kinase profiling” value [25] was 56. The activity at 1 µM [26] was 123%, the “TSSK1 activity in kinase profiling” value [27] was 81 and the “CAMKKb activity in kinase profiling” value [28] was 98. For the same compound, the “PIM2 activity in kinase profiling” value [29] was 78, the “STK33 activity in kinase profiling” value [30] was 88 and the “HER4 activity in kinase profiling” value [31] was 94. The “PKCz activity in kinase profiling” value [32] was 115, the “ERK8 activity in kinase profiling” value [33] was 82 and the “SIK2 activity in kinase profiling” value [34] was 91. For the same compound, the “RSK2 activity in kinase profiling” value [35] was 120, the “MAPKAP-K3 activity in kinase profiling” value [36] was 81 and the “CK1δ activity in kinase profiling” value [37] was 34. The “MKK2 activity in kinase profiling” value [38] was 115, the “IRR activity in kinase profiling” value [39] was 87 and the “GCK activity in kinase profiling” value [40] was 90. For the same compound, the “MAP4K5 activity in kinase profiling” value [41] was 91 and the “MEKK1 activity in kinase profiling” value [42] was 79.
